In publication PMC9822434, “Estradiol-Based Salicylaldehyde (Thio)Semicarbazones and Their Copper Complexes with Anticancer, Antibacterial and Antioxidant Activities” (Molecules, 2022):

Assays:
MCF-7 KCR = test: MTT cytotoxicity assay; type: cell-based, human
Experimental: (§1) To test the biological effects of the Cu(II) complexes and the ligands on human cancer cells, DU-145 prostate, A549 lung, and MCF-7 breast adenocarcinoma cells, as well as the multidrug-resistant MCF-7 KCR breast cancer cells were utilized. All the cell lines were maintained in RPMI-1640 media (Biosera, Nuaille, France) complemented with 10% fetal bovine serum (FBS), 2 mM L-glutamine, 0.01% streptomycin and 0.005% penicillin, (Biosera, Nuaille, France) and were cultured under standard conditions in a 37 °C incubator at 5% CO2 and 95% humidity. The cell lines were originally obtained from ATCC.
(§2) The effect of the complexes and of their ligands alone on the viability (on the metabolic activity) of human cancer cells was assessed by MTT assay. The tested compounds were dissolved in 90% (v/v) DMSO/H2O at 10 mM concentration. Equimolar solutions of the ligand CuCl2 salt were used for the cytotoxicity assays. The metal salts without ligands were also tested. For this, 1 × 10^4 cells/well were seeded into 96-well plates and left to grow overnight. On the following day, cells were exposed to increasing concentrations of each compound (0; 2.5; 5; 10; 15; 20 µM). After a 24 h incubation, cells were washed with PBS buffer and then incubated with 0.5 mg/mL MTT (Sigma-Aldrich, St Louis, Missouri, MO, USA) for 1 h at 37 °C. The formazan crystals were solubilized in DMSO (Molar Chemicals, Halásztelek, Hungary), and the absorbance of samples was determined at 570 nm using a Synergy HTX plate reader (BioTek, Winooski, Vermont, VT, USA). Absorption corresponding to the untreated control samples was considered as 100%.

A549 = test: MTT cytotoxicity assay; type: cell-based, human; conditions: 24 h incubation time
Experimental: as §1, §2

MCF-7 = test: MTT cytotoxicity assay; type: cell-based, human; conditions: MCF-7, MTT, 24 h incubation time
Experimental: as §1, §2

DU-145 = test: MTT cytotoxicity assay; type: cell-based, human; conditions: DU-145, MTT, 24 h incubation time
Experimental: as §1, §2

[1] = cyclic voltammetry of Cu(II)-(T)SC (1:1) systems; type: physicochemical; conditions: 90% (v/v) DMSO/H2O, pH 7.40 (10 mM HEPES), 10 mV/s, 25 °C, I = 0.1 M (nBu4NPF6)
Experimental: Cyclic voltammograms of TSCs derivatives and their Cu(II) complexes at 25.0 ± 0.1 °C were recorded. nBu4NPF6 was used as a supporting electrolyte, and measurements were performed at pH 7.4. The complexes were obtained by mixing the ligand dissolved in DMSO with aqueous solution of CuCl2 in 1:1 ratio. The final concentration of stock was 1 mM. Measurements were performed on a conventional three-electrode system under argon atmosphere using an Autolab PGSTAT 204 potentiostat/galvanostat monitored with Metrohm’s Nova software. Samples were purged for 10 min with argon before recording the cyclic voltammograms. Platinum electrode was used as the working and auxiliary electrode and Ag/AgCl/3 M KCl as the reference electrode. The electrochemical system was calibrated with an aqueous solution of K3[Fe(CN)6] (E1/2 = +0.458 V vs. NHE). Redox potentials were obtained at 10 mV/s scan rate in the range of −1.3 to +0.8 V.

E. faecalis ATCC 29212 = test: MIC determination; type: cell-based, Enterococcus faecalis; conditions: Gram-positive E. faecalis ATCC 29212, Mueller Hinton Broth
Experimental: (§3) Klebsiella pneumoniae (ATCC 49619), Escherichia coli (ATCC 25922), Staphylococcus aureus (ATCC 25928) and Enterococcus faecalis (ATCC 29212) strains were used as Gram-negative and Gram-positive bacterial cultures. The stock solutions of the tested compounds (dissolved in 90% (v/v) DMSO/H2O at 10 mM concentration) were diluted in 100 μL of Mueller Hinton Broth, and then two-fold serial dilutions were performed. As a starting point, 100 μM concentration of the compounds was used. Then, 10^−4 dilution of an overnight bacterial culture in 100 μL of medium was added to each well, with the exception of the medium control wells. Minimum inhibitory concentration (MIC) values of compounds were determined according to our previous work.

[2] = DPPH free radical scavenging assay; conditions: for TEAC (Trolox equivalent antioxidant capacity): DPPH assay in ethanol; for TEAC (Trolox equivalent antioxidant capacity) / % Scavenging Effect: 25 °C; for % Scavenging Effect: DPPH:compound = 1:1 ratio after 30 min, ethanol; for IC50: in ethanol, T = 25 °C, cDPPH = 50 µM, ccompound = 5−50 µM
Experimental: The DPPH (Sigma-Aldrich) free radical scavenging capacity was studied at 25.0 ± 0.1 °C on an Agilent Cary 3500 spectrophotometer with tightly closed tandem cuvette according to our approach with some modifications. The stock solution of DPPH (100 µM) was prepared in ethanol, and 0.5 mL of this solution was added to one pocket of the cuvette and 0.5 mL of the tested compound in different concentrations in ethanol was added to another. The final concentration of the studied compounds was in the range 5–50 µM, where for DPPH concentration, it was always 50 µM. A standard compound Trolox (Sigma-Aldrich) was used as a positive control. The percentage of the antioxidant activity (AA), IC50 values (the concentration of compound at which it reduced 50% of DPPH) and Trolox equivalent antioxidant capacity (TEAC) were calculated.

S. aureus ATCC 25928 = test: MIC determination; type: cell-based, Staphylococcus aureus; conditions: Gram-positive S. aureus ATCC 25928, Mueller Hinton Broth
Experimental: as §3

physchem = type: physicochemical
Experimental: (§4) An Orion 710A pH-meter equipped with a Metrohm combined electrode (type 6.0234.100) and a Metrohm 665 Dosimat burette were used for the UV–vis titrations at 25.0 ± 0.1 °C. Ionic strength of 0.10 M (KCl) was used to keep the activity coefficients constant. The titrations were performed with carbonate-free KOH solution of known concentration (0.10 M) with 30% (v/v) DMSO content. […] The average water ionization constant (pKw) is 14.54 ± 0.05 in the 30% (v/v) DMSO/H2O mixture. Argon was always passed over the solutions during the titrations. An Agilent Cary 8454 diode array spectrophotometer was used to record the UV–vis spectra at an interval of 200–800 nm. The path length was 2 cm. Spectrophotometric titrations were performed using a 0.1 M KOH titrant solution with 30% (v/v) DMSO on samples with 30% (v/v) DMSO containing HCl, KCl and the ligand at 20 μM concentration in the pH range 2.0–12.5 in the absence or in the presence of 1 or 0.5 equiv. Cu(II) ions. Proton dissociation constants (Ka) of the TSC ligands, the overall stability constants (β) of the Cu(II) complexes and the UV–vis spectra of the individual species were calculated by the computer program PSEQUAD [41] as was done in our previous works.

[3] = direct redox reaction of the Cu(II) complexes with GSH (UV–vis, anaerobic); type: physicochemical; conditions: Cu(II) complex (25 µM) of the named ligand with GSH (1.25 mM), pH 7.4, anaerobic, 30% (v/v) DMSO/H2O, 25.0 °C
Experimental: The redox reaction of the Cu(II) complexes with GSH and ascorbic acid was studied at 25.0 ± 0.1 °C, at pH 7.40 (10 mM HEPES with 0.1 M KCl) on an Agilent Cary 8454 diode array spectrophotometer using a special, tightly closed tandem cuvette (Hellma Tandem Cell, 238-QS). The complex and the reducing agent were separated until the reaction was triggered. Both isolated pockets of the tandem cuvette were completely deoxygenated by bubbling argon for 10 min before mixing the reactants. Spectra were recorded before and then immediately after the mixing, and changes were followed till no further absorbance change was observed. The stock solutions of the reducing agents and the complexes were freshly prepared every day.
During the calculations, the absorbance (A)−time (t) curves were fitted and analyzed at the λmax of the complex. (A0 − Afinal) × e ^(−a×t) + Afinal equation was used where A0, Afinal and a parameters were refined and accepted at the minimal value of the weighted sum of squared residuals (difference between the measured and calculated absorbance values) at the given wavelength. Then observed rate constants (kobs) of the redox reaction were obtained from the data points of the simulated absorbance–time curves as the slope of the ln(A/A0) versus t plots.

[4] = type: physicochemical; conditions: for logβ [CuLH−1] / logβ [CuL]+: Cu(II) complex of the named ligand, 30% (v/v) DMSO/H2O, T = 25.0 °C, I = 0.1 M (KCl); for pCu5.0: calculated at pH 5.0, cCu(II) = 20 µM; for pCu5.0 / pCu6.0 / pCu7.4: cligand = 20 µM; for pCu6.0: estimated at pH 6.0, cCu(II) = 20 µM; for pCu7.4: estimated at pH 7.4, cCu(II) = 20 µM
Experimental: as §4

[5] = Homo sapiens, MCF7, 24 h incubation time
[6] = Enterococcus faecalis, ATCC29212
[7] = Staphylococcus aureus, ATCC25928

Row | SMILES | IC50 (MCF-7 KCR; 24 h incubation time) [µM] | IC50 (A549) [µM] | IC50 (MCF-7) [µM] | IC50 (DU-145) [µM] | formal potential E’ vs. Ag/AgCl/3M KCl [1] | MIC (E. faecalis ATCC 29212) [µM] | TEAC (Trolox equivalent antioxidant capacity) [2] | % Scavenging Effect [2] [%] | IC50 [2] [µM] | MIC (S. aureus ATCC 25928) [µM] | IC50 (MCF-7 KCR; [5]) [µM] | IC50 (A549; Homo sapiens) [µM] | IC50 (MCF-7; Homo sapiens, MCF7) [µM] | IC50 (DU-145; Homo sapiens) [µM] | MIC (E. faecalis ATCC 29212; [6]) [µM] | pKa (physchem) | kobs [3] [min⁻¹] | MIC (S. aureus ATCC 25928; [7]) [µM] | pKa [CuL]+ [4] | logβ [CuLH−1] [4] | also measured
1 | CN(C)C([S-])=N/N=C/c1cc2c(cc1[O-])CC[C@@H]1[C@@H]2CC[C@]2(C)[C@@H](O)CC[C@@H]12.O.[Cu+2] [Cu(II)-Me2-estradiol-TSC] | > 20 | 3.44 ± 1.02 | 10.1 ± 1.36 | 7.85 ± 1.08 | +0.33 V | 12.5 | 0.7 | 40.4 | 16.4 | 0.78 |  |  |  |  |  |  |  |  |  |  | 
2 | CNC([S-])=N/N=C/c1cc2c(cc1[O-])CC[C@@H]1[C@@H]2CC[C@]2(C)[C@@H](O)CC[C@@H]12.O.[Cu+2] [Cu(II)-Me-estradiol-TSC] | > 20 | 3.71 ± 1.02 | 16.7 ± 1.66 | 15.8 ± 1.08 | +0.29 V | 50 | 0.6 | 33.6 | 20.3 | 6.25 |  |  |  |  |  |  |  |  |  |  | 
3 | CN(C)C(=S)NN=Cc1cc2c(cc1O)CC[C@@H]1[C@@H]2CC[C@]2(C)[C@@H](O)CC[C@@H]12 [Me2-estradiol-TSC, 2-((3,17 β-Dihydroxy-estra-1,3,5(10)-triene-2-yl)methylene)-N,N-dimethylhydrazine-1-carbothioamide] |  |  |  |  |  |  | 0.9 | 100 | 13.6 |  | > 20 | > 20 | > 20 | > 20 | > 100 | 9.2 ± 0.03 | 0.31 ± 0.06 | > 100 | 3.85 | 10.11 ± 0.03 | logβ [CuL]+ [4]: 13.96 ± 0.03; pCu5.0 [4]: 8.0; pCu6.0 [4]: 9.6; pCu7.4 [4]: 12.4
4 | CNC(=S)NN=Cc1cc2c(cc1O)CC[C@@H]1[C@@H]2CC[C@]2(C)[C@@H](O)CC[C@@H]12 [Me-estradiol-TSC, 2-((3,17 β-Dihydroxy-estra-1,3,5(10)-triene-2-yl)Methylene)-N-methylhydrazine-1-carbothioamide] |  |  |  |  |  |  | 0.8 | 31.0 | 15.4 |  | > 20 | 15.8 ± 1.03 | > 20 | > 20 | > 100 | 9.28 ± 0.03 | 0.22 ± 0.02 | > 100 | 4.08 | 9.59 ± 0.03 | logβ [CuL]+ [4]: 13.68 ± 0.03; pCu5.0 [4]: 7.6; pCu6.0 [4]: 9.1; pCu7.4 [4]: 11.8
5 | Cc1c(C)c2c(c(C)c1O)CCC(C)(C(=O)O)O2 (centres unmarked) [Trolox, 6-hydroxy-2,5,7,8-tetramethylchroman-2-carboxylic acid, reference compound] |  |  |  |  |  |  | 1 | 100 | 12 |  |  |  |  |  |  |  |  |  |  |  | 
6 | C[C@]12CC[C@@H]3c4ccc(O)cc4CC[C@H]3[C@@H]1CC[C@@H]2O [estradiol] |  |  |  |  |  |  |  | 0.5 | > 50 |  |  |  |  |  |  |  |  |  |  |  | 
